Format in all cases: cell-based, human
Test [1] deals with Bcl-2 and Bax protein levels. The experiment in a line: Western blotting of Bcl-2 and Bax protein levels in A2058 cells. The following applies: A2058, 100 μM. How it is done: (§1) Mitochondria represent the primary source of ROS, as well the target of ROS action, and therefore, compound 7 could affect their functionality in melanoma cells. […] Proteins belonging to the B-cell lymphoma-2 (Bcl-2) family are involved in the modulation of the mitochondrial functionality. Therefore, we have evaluated the levels of the anti-apoptotic protein Bcl-2, as well as that of the pro-apoptotic Bcl-2-associated X protein (Bax), after incubation with 7 (Figure 10B). […] To further investigate the occurrence of a mitochondrial-mediated apoptosis induced by 7, the caspase-9 activity was assayed. […] The effect of compound 7 was investigated also in SAN cells and the overall results were similar to those observed in A2058 (Supplementary Figure S6).
A2058 cells were seeded into 6-well-plates (3 × 10^5 cells/plate) for 24 h at 37°C and then treated at different times with 100 μM compound 7 or 0.5% DMSO. After treatment, cells were harvested, washed with PBS and then lysed in ice-cold modified radio immunoprecipitation assay (RIPA) buffer (50 mM Tris-HCl, pH 7.4, 150 mM NaCl, 1% Nonidet P-40, 0.25% sodium deoxycholate, 1 mM Na3VO4 and 1 mM NaF), supplemented with protease inhibitors and incubated for 30 min on ice. The supernatant obtained after centrifugation at 12,000 rpm for 30 min at 4°C constituted the total protein extract. The protein concentration was determined by the method of Bradford, using bovine serum albumin (BSA) as standard. Equal amounts of total protein extracts were used for Western blot analysis. […] The filter was incubated with the specific primary antibody at 4°C overnight and then with the secondary antibody at room temperature for 1 h. Membranes were then analysed by an enhanced chemiluminescence reaction, using Super Signal West Pico kit (Pierce) according to manufacturer's instruction; signals were visualized by autoradiography.
In general terms: A western blot detects proteins with antibodies after separation by electrophoresis.

In test [2] the test system is Bcl-2 and Bax protein levels. The experiment in a line: Western blotting of Bcl-2 and Bax protein levels in SAN cells. As to conditions: 100 μM, 8 or 16 h. How it is done:
Mitochondria represent the primary source of ROS, as well the target of ROS action, and therefore, compound 7 could affect their functionality in melanoma cells. […] Proteins belonging to the B-cell lymphoma-2 (Bcl-2) family are involved in the modulation of the mitochondrial functionality. Therefore, we have evaluated the levels of the anti-apoptotic protein Bcl-2, as well as that of the pro-apoptotic Bcl-2-associated X protein (Bax), after incubation with 7 (Figure 10B). […] To further investigate the occurrence of a mitochondrial-mediated apoptosis induced by 7, the caspase-9 activity was assayed. […]
A2058 cells were seeded into 6-well-plates (3 × 10^5 cells/plate) for 24 h at 37°C and then treated at different times with 100 μM compound 7 or 0.5% DMSO. […] The protein concentration was determined by the method of Bradford, using bovine serum albumin (BSA) as standard. […] Membranes were then analysed by an enhanced chemiluminescence reaction, using Super Signal West Pico kit (Pierce) according to manufacturer's instruction; signals were visualized by autoradiography.
Supplementary Figure S6: Effect of compound 7 on some apoptotic mitochondrial markers in SAN cells. […] Total protein extracts from SAN cells, incubated with 0.5% DMSO or 100 μM compound 7 for 8 or 16 h,were analyzed by Western blotting. […]

A further test concerns A2058 cells. Description: Intracellular ROS level (DCFH-DA), A2058 cells. How it is done:
The high redox reactivity of quinonoid molecules, like compound 7, could greatly perturb the intracellular redox state. […] The oxidant effect of 7 was also evaluated after cell pre-treatment with two antioxidant molecules, such as N-acetyl-cysteine (NAC) and the specific inhibitor of NADPH oxidase, apocynin. To this aim, A2058 and SAN cells were pre-incubated for 1 h with 10 mM NAC or 45 min with 0.5 mM apocynin and then treated for 4 h with 100 μM compound 7. […] The cytotoxic activity of 7 could be mediated by the observed increase of ROS level.
The intracellular ROS level was monitored using the oxidation-sensitive fluorescence probe DCFH-DA. Cells were seeded into 6-well-plates (3 × 10^5 cells/plate) for 24 h at 37°C and then treated at various times with 100 μM compound 7 or 0.5% DMSO. DCFH-DA was added in the dark at 10 μM final concentration 30-min before the end of each incubation; then, cells were collected, washed in PBS, and finally resuspended in 500 μL PBS for fluorimetric analysis. Measurements were realized in a Cary Eclipse fluorescence spectrophotometer (Varian); excitation and emission wavelengths were set at 485 nm and 530 nm, respectively; both excitation and emission slits were set at 10 nm. The effect of 7 on ROS production was also estimated after pretreatment of cells with 10 mM NAC for 1 h.

A further test concerns caspase-9 activity. Description: Caspase-9 enzymatic activity in A2058 cells. As to conditions: A2058, 100 μM, 24 h. How it is done:
as §1
To estimate caspase-3 and caspase-9 activity during the treatment with compound 7, the respective enzymatic activities were measured by using caspase-3 and -9 fluorimetric assay kits, according to the manufacturer's protocol, essentially as previously described. Briefly, cells were seeded into 75 cm^2 plates (2 × 10^6 cells/plate) for 24 h at 37°C and then treated with 100 μM 7 or 0.5% DMSO. […] Cell lysates were incubated with 50 μM DEVD-AFC or LEHD-AFC substrates at 37°C for 2 h, to detect caspase-3 or caspase-9 activity, respectively, using a Cary Eclipse fluorescence spectrophotometer (Varian). […]

`O=C(O)C1CCCCC1c1c2ccc(=O)cc-2oc2cc(O)ccc12` (stereo not drawn) [Compound 7, 2-(6-hydroxy-3-oxo-3H-xanthen-9-yl)cyclohexanecarboxylic acid]: in test [1] (8 and 16 h), the Bcl-2/Bax ratio result is on record as “significant reduction” and the Bcl-2 protein level entry is “clear reduction of the Bcl-2 level after 8-h treatment”. In addition, the Bax protein level entry in test [1] (16 h) is given as “clear increase of Bax”. In test [2], the Bcl-2/Bax ratio entry is given as “significantly decreased”; the “Bcl-2 and Bax protein levels” value is “both levels of Bcl-2 and Bax were reduced”. In the test on A2058 cells (A2058, 100 μM, significant after 4 h), the “intracellular ROS level” value is reported as “time-dependent increase of the ROS level”. Besides, the “increase of ROS level after apocynin pre-treatment” value in the test with A2058 cells (A2058, 0.5 mM apocynin 45 min, then 100 μM 7 for 4 h) was “did not prevent the increase of ROS level”. For the same molecule, the “increase of ROS level after NAC pre-treatment” value with A2058 cells (A2058, 10 mM NAC 1 h, then 100 μM 7 for 4 h) is reported as “prevented by the NAC treatment”. For the same molecule, the caspase-9 activity result with caspase-9 activity was “clear increase of caspase-9 activity”.

The record behind these values is publication PMC4741889, “Ligand-based chemoinformatic discovery of a novel small molecule inhibitor targeting CDC25 dual specificity phosphatases and displaying in vitro efficacy against melanoma cells” (Oncotarget, 2015).
